Experimental data taken from the supplement of paper PMC7224384.

How the values were obtained:
MDA-MB-453 [1] = experiment: drug sensitivity score (DSS), single agent (DSS (weighted AUC score)); higher = more sensitive (stronger viability decrease); extreme values may be limits of the assay; conditions: BLU9931 0 nM; 72 h
Summary of the method: (§1)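 Compounds from the FIMM Oncology set were predispensed in singlicate at five 10-fold dilutions (10,000-fold range) on 384-well plates. Each well then received 2000 MDA-MB-453 cells in medium with or without an FGFR4 inhibitor (100 nM final) and was kept at 37 °C, 5% CO2. Cellular ATP was read with CellTiterGlo 2.0 after 72 h and normalised per plate to percent viability from control wells. The drug sensitivity score is a weighted area under a four-parameter logistic fit.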

MDA-MB-453 [2] = experiment: drug sensitivity score (DSS), in combination with BLU9931 (DSS (weighted AUC score)); higher = more sensitive (stronger viability decrease); extreme values may be limits of the assay; conditions: BLU9931 100 nM; 72 h
Summary of the method: as §1

SMILES | drug sensitivity score (MDA-MB-453 [1]) | drug sensitivity score (MDA-MB-453 [2])
CO[C@H](C(=O)[C@@H](O)[C@@H](C)O)[C@@H]1Cc2cc3cc(O[C@H]4C[C@@H](O[C@@H]5C[C@@H](O)[C@H](O)[C@@H](C)O5)[C@H](O)[C@@H](C)O4)c(C)c(O)c3c(O)c2C(=O)[C@H]1O[C@H]1C[C@@H](O[C@@H]2C[C@@H](O)[C@@H](O[C@@H]3C[C@](C)(O)[C@H](O)[C@@H](C)O3)[C@@H](C)O2)[C@H](O)[C@@H](C)O1 [Plicamycin] | 15.7 | 15.7
Nc1cccc2c1C(=O)N(C1CCC(=O)NC1=O)C2=O (configuration not stated) [Pomalidomide] | 0 | 0
Cc1ccc(C(=O)Nc2ccc(CN3CCN(C)CC3)c(C(F)(F)F)c2)cc1C#Cc1cnc2cccnn12 [Ponatinib] | 5.9 | 1.7
C=CC(=O)N1CCC(Oc2cc3c(Nc4ccc(Cl)c(Cl)c4F)ncnc3cc2OC)CC1 [Poziotinib] | 19.1 | 25.1
CCCCc1nc2cc(/C=C/C(=O)NO)ccc2n1CCN(CC)CC [Pracinostat] | 22.3 | 19.8
CC[C@H](C)C(=O)O[C@H]1C[C@H](O)C=C2C=C[C@H](C)[C@H](CC[C@@H](O)C[C@@H](O)CC(=O)O)[C@H]21 [Pravastatin] | 0 | 0.3
C[C@]12C=CC(=O)C=C1CC[C@@H]1[C@@H]2[C@@H](O)C[C@@]2(C)[C@H]1CC[C@]2(O)C(=O)CO [Prednisolone] | 8.2 | 0
COc1cccc(OCCCN)c1-c1cc(Nc2cnc(C#N)cn2)n[nH]1 [Prexasertib] | 28 | 23.6
Cn1cc(CNCC2CCN(c3ncc(C(=O)NO)cn3)CC2)c2ccccc21 [Quisinostat] | 22.4 | 21.3
CC(C)(C)c1cc(NC(=O)Nc2ccc(-c3cn4c(n3)sc3cc(OCCN5CCOCC5)ccc34)cc2)no1 [Quizartinib] | 1 | 0.4
Nc1cc(F)ccc1NC(=O)/C=C/c1cnn(C/C=C/c2ccccc2)c1 [RGFP966] | 2.6 | 2.9
COC(=O)c1ccc([C@H]2c3[nH]c4ccccc4c3C[C@H](C(=O)OC)N2C(=O)CCl)cc1 [RSL3] | 0.6 | 0.8
Cc1cnc(NC(=O)Nc2cc(Br)c(C)cc2OC[C@@H]2CNCCO2)cn1 [Rabusertib] | 1.2 | 0.9
Cc1cn(-c2cc(NC(=O)c3ccc(C)c(Nc4nccc(-c5cnccn5)n4)c3)cc(C(F)(F)F)c2)cn1 [Radotinib] | 0 | 2.4
CC(C)(C)Cn1c(N)nc2ccc(-c3[nH]c(C(C)(C)C)nc3-c3ccc(F)cc3)nc21 [Ralimetinib] | 1.8 | 0.8
O=C(c1ccc(OCCN2CCCCC2)cc1)c1c(-c2ccc(O)cc2)sc2cc(O)ccc12 [Raloxifene] | 2.4 | 2.5
Cc1nc(=O)c2cc(CN(C)c3ccc(C(=O)N[C@@H](CCC(=O)O)C(=O)O)s3)ccc2[nH]1 [Raltitrexed] | 5.3 | 3.2
Cn1nccc1Nc1nccc(-c2ccn([C@H](CO)c3ccc(Cl)c(F)c3)c(=O)c2)n1 [Ravoxertinib] | 6.9 | 5.6
CNC(=O)c1cc(Oc2ccc(NC(=O)Nc3ccc(Cl)c(C(F)(F)F)c3)c(F)c2)ccn1 [Regorafenib] | 3 | 1.5
CCOC(=O)C1=CCCC[C@H]1S(=O)(=O)Nc1ccc(F)cc1Cl [Resatorvid] | 0 | 0
CCOCc1nc2c(N)nc3ccccc3c2n1CC(C)(C)O [Resiquimod] | 0.9 | 0
CN(C)Cc1ccc(S(=O)(=O)n2ccc(/C=C/C(=O)NO)c2)cc1 [Resminostat] | 16 | 16.2
CN(C)C(=O)c1cc2cnc(Nc3ccc(N4CCNCC4)cn3)nc2n1C1CCCC1 [Ribociclib] | 1.4 | 3.6
CO[C@H]1C[C@@H]2CC[C@@H](C)[C@@](O)(O2)C(=O)C(=O)N2CCCC[C@H]2C(=O)O[C@H]([C@H](C)C[C@@H]2CC[C@@H](OP(C)(C)=O)[C@H](OC)C2)CC(=O)[C@H](C)/C=C(\C)[C@@H](O)[C@@H](OC)C(=O)[C@H](C)C[C@H](C)/C=C/C=C/C=C/1C [Ridaforolimus] | 9.5 | 14.7
COc1cc(OC)c(/C=C/S(=O)(=O)Cc2ccc(OC)c(NCC(=O)O)c2)c(OC)c1 [Rigosertib] | 17.6 | 16.2
C[C@H]1CNCCCN1S(=O)(=O)c1cccc2cncc(F)c12 [Ripasudil] | 0 | 0.1
